Test results reported in article PMC7956620 (Molecules, 2021).

Target: T1, human 5-HT3A receptor (Homo sapiens, UniProt P46098)
T1 construct: host or cells: Xenopus laevis oocytes injected with in vitro transcribed mRNA
T1 sequence (P46098 24-478): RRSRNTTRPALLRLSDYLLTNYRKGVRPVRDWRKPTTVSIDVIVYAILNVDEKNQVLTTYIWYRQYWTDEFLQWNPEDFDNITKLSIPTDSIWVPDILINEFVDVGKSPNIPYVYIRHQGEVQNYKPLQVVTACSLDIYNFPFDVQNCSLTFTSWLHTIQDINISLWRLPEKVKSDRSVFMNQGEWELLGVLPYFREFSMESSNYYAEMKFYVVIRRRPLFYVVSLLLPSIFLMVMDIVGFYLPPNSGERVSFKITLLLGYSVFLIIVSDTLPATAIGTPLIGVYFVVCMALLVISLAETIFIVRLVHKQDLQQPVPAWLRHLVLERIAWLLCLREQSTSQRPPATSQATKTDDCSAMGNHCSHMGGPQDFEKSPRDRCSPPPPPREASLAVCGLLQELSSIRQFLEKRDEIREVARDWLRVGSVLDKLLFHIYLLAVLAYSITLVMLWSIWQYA
Assay: cell-based
Format: cell-based
Experimental: Human 5-hydroxytryptamine (serotonin) receptor 3A cDNA (Genebank number: BC004453) was obtained from OriGene (Rockville, MD, USA). Figure 1A represents the chemical structure of two ergot alkaloids, EG and EC, obtained from Sigma-Aldrich (St. Louis, MO, USA). These ergot alkaloids were diluted in bath solution after dissolving in dimethyl sulfoxide (DMSO) for use as stock solutions. The final treatment concentration of DMSO was less than 0.01%. Xenopus laevis frogs were obtained from the Korean Xenopus Resource Center for Research (KXRCR000001, Chuncheon, Gangwondo, Korea), and other agents were purchased from Sigma-Aldrich.
To isolate oocytes, female Xenopus laevis were put into a container filled with ice and left for about one hour. When the blood vessels contracted and fell into a state similar to hibernation, the abdomen was incised, and the ovaries were removed and cut into small pieces in Ca^2+-free OR2 solution (82.5 mM NaCl, 2.5 mM KCl, 1 mM MgCl2, and 5 mM HEPES, pH 7.4) with 2 mg/mL collagenase. After a 2 h agitation to digest the follicle membranes, isolated oocytes in stages Ⅴ and Ⅵ were selected and washed repeatedly. The selected oocytes were maintained in ND96 incubation solution (96 mM NaCl, 2 mM KCl, 1.8 mM CaCl2, 1 mM MgCl2, 5 mM HEPES, 2.5 mM sodium pyruvate, and 50 µg/mL gentamycin, pH 7.4) at 16–18 °C. The solution containing the oocytes was changed twice a day and stored in a shaking incubator. Under the microscope, the end of a glass capillary was broken and fitted with a 20 µm diameter needle and filled with mineral oil, discharging air bubbles from the tip. When the Xenopus oocytes were ready for injection, 50 ng of mRNA was injected with a nanoliter injector (Drummond Scientific, Vernon Hills, IL, USA). The recording was started after two days of sufficient shaking incubation in ND96 solution. Surgery, microinjections, and the other handling of Xenopus laevis followed the standard protocols.
The oocytes in which mRNA was expressed during the incubation period allowed for the estimation of channel or receptor properties for observing drug and ligand potential interactions using a two-electrode voltage clamp (OC-725C; Warner Instruments, Hamden, CT, USA) and Digidata (1322A; Molecular Devices, Sunnyvale, CA, USA). The two-electrode voltage clamp had voltage and current electrodes that stably maintained the potential and delivered the transmembrane potential and high current. […] A computer transferred the converted output amplitude of the voltage clamp amplifiers to an input digital converter using pClamp 10 software (Axon Instruments, Union City, CA, USA). The voltage and current electrodes were filled with 3 M KCl (0.3–0.7 MΩ) and analyzed at a −80 mV holding potential. The oocytes were placed in the chamber and exposed to a ND96 solution at a flow rate of 2 mL per minute. In the electrophysiological experiments, the voltage ramp recording was performed at room temperature, and a current from −80 to +60 mV was applied to determine the current and voltage relationships. Inward peak traces of the 5-HT3A receptor and voltage ramp traces were converted to a value through Clampfit 9.0 (Molecular Devices, San Jose, CA, USA).
In the experiments, all data were represented as the mean ± SEM (standard error of the mean) of the 5-HT-stimulated inward peak in the 5-HT3A receptors. […] All curves plotted through the Hill equation were generated using Origin Pro 7.0 (OriginLab, Northampton, MA, USA). The significance of differences between the control and chanoclavine treatment was determined according to the p-value in the Student’s t-test. p-values of less than 0.05 were considered statistically significant.

| Structure (SMILES) | Imax of normalized 5-HT concentration-response current | inhibition at 100 µM (100 µM compound with 100 µM 5-HT, −80 mV, read-out: inhibition of I5-HT) [%] | maximum inhibition (Imax) (Hill fit, co-application with 100 µM 5-HT, −80 mV) [%] | effect of co-application with 5-HT on current (various concentrations with 100 µM 5-HT) | effect of compound alone (without 5-HT) (−80 mV holding potential, data not shown) |
| --- | --- | --- | --- | --- | --- |
| NCCc1c[nH]c2ccc(O)cc12 [5-HT, 5-hydroxytryptamine, reference compound] | 99.1 ± 14.2 | – | – | – | – |
| C[C@@H](CO)NC(=O)[C@@H]1C=C2c3cccc4[nH]cc(c34)C[C@H]2N(C)C1 [ergonovine, reference compound] | – | 1.1 ± 4.8 | 15 ± 5.7 | did not show any noticeable reduction | no change |
